Source: patent US20190015361A1 (Maxwell Biosciences, Inc., priority 2017, published 2019)
pKd: −log10 of the molar value.

What was measured:
[1] = biological target: Aβ42 monomers (Homo sapiens, UniProt P05067); settings: Aβ42 monomers immobilized on SPR chip; cited from earlier work
[2] = biological target: Aβ42 oligomers (Homo sapiens, UniProt P05067); settings: Aβ42 oligomers immobilized on SPR chip; cited from earlier work
[3] = tested on: Aβ40 (t=0 days), Aβ42 (t=0 days), Aβ42 (t=24 days); assay: SPRi interaction with the three immobilized Aβ forms; assay type: binding, human
[4] = biological target: T1, Aβ42 (Homo sapiens, UniProt P05067); assay: Transmission electron microscopy of Aβ42 fibril formation
T1 construct: Aβ42 (residues 1-42 of the Aβ peptide); purchased AnaSpec (Fremont Calif., USA)
T1 sequence (P05067 672-713 limits assumed): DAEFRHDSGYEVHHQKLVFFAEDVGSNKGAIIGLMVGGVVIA
Protocol: For TEM and CD analysis, the samples were prepared as described in Brogi et al. [REF: Disease-modifying anti-Alzheimer's drugs: inhibitors of human cholinesterases interfering with β-amyloid aggregation. Brogi S, Butini S, Maramai S, Colombo R, Verga L, Lanni C, De Lorenzi E, Lamponi S, Andreassi M, Bartolini M, Andrisano V, Novellino E, Campiani G, Brindisi M, Gemma S. CNS Neurosci Ther. 2014 Jui; 20(7):624-32. Pubmed ID PMID 24935788], and analyzed at 50 and/or 100 μM concentrations. Briefly, to 1 mg lyophilized Aβ42 powder (AnaSpec) […] of 1% NH4OH solution was added. After 1 minute sonication, the solution was diluted with 20 mM phosphate buffer, pH 7.4, to the desired concentration, and divided into aliquots, which were freeze-dried and stored at −80° C. Each lyophilized peptide aliquot was resuspended in 20 mM phosphate buffer, pH 7.4 immediately before use. Samples were sonicated 3 min in an ultrasonic bath, to break down pre-formed aggregates and increase the peptide's effective concentration [REF: Sonication of proteins causes formation of aggregates that resemble amyloid. Stathopulos P B. Scholz G A, Hwang Y M, Rumfeldt J A, Lepock J R, Meiering E M. Protein Sci. 2004 November; 13(11):3017-27. Pubmed ID PMID 15459333]. […] Samples were analyzed either immediately after solubilization, or after different lengths of incubation time, as noted in FIG. legends. […]

[5] = biological target: T1, Aβ42; assay: Circular dichroism conformational analysis of Aβ42; settings: 50 μM Aβ42 in the presence of LL-37 (1:1), t=0 and 24 hours
Protocol: For TEM and CD analysis, the samples were prepared as described in Brogi et al. [REF: Disease-modifying anti-Alzheimer's drugs: inhibitors of human cholinesterases interfering with β-amyloid aggregation. Brogi S, Butini S, Maramai S, Colombo R, Verga L, Lanni C, De Lorenzi E, Lamponi S, Andreassi M, Bartolini M, Andrisano V, Novellino E, Campiani G, Brindisi M, Gemma S. CNS Neurosci Ther. 2014 Jui; 20(7):624-32. Pubmed ID PMID 24935788], and analyzed at 50 and/or 100 μM concentrations. Briefly, to 1 mg lyophilized Aβ42 powder (AnaSpec) […] of 1% NH4OH solution was added. […] Samples were analyzed either immediately after solubilization, or after different lengths of incubation time, as noted in FIG. legends.
CD spectra were collected at 20° C. using a Jasco-810 spectrophotometer and a quartz cuvette with a 0.1 cm path length. […] Molar mean residue ellipticity [θ] is expressed in degrees cm2 dmol−1, and calculated as [θ]=θobs MWR/(10 l c), where θ is observed ellipticity in degrees; MWR, peptide mean residue molar weight; l, the optical path length in cm; and c, peptide concentration in […].
As in TEM analysis, spectra were recorded immediately after dissolving peptide according to [REF: Disease-modifying anti-Alzheimer's drugs: inhibitors of human cholinesterases interfering with β-amyloid aggregation. […]

[6] = tested on: human microglia; assay: TNFα and IL-6 release from microglia (ELISA); assay type: cell-based; settings: microglial cell-free supernatant, 30 μM, 2 days' incubation
[7] = biological target: Aβ40 (t = 0 days) (Homo sapiens, UniProt P05067); assay: SPRi equilibrium binding of LL-37 to immobilized Aβ40
Aβ40 (t = 0 days), sequence (P05067 672-711): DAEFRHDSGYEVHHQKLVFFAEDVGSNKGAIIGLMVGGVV

[8] = biological target: Aβ42 (t = 0 days) (Homo sapiens, UniProt P05067); assay: SPRi equilibrium binding of LL-37 to immobilized Aβ42 (low-MW oligomers); settings: equilibrium fit
Aβ42 (t = 0 days), sequence (P05067 672-713 limits assumed): as the sequence (P05067 672-713 limits assumed) above

[9] = biological target: Aβ42 (t = 24 days) (Homo sapiens, UniProt P05067); assay: SPRi equilibrium binding of LL-37 to immobilized Aβ42 (high-MW oligomers); settings: equilibrium fit
Aβ42 (t = 24 days), sequence (P05067 672-713 limits assumed): as above

Aβ42 oligomers, sequence (P05067 672-713 limits assumed): as above
Aβ42 monomers, sequence (P05067 672-713 limits assumed): as above

**Q.** With `CC[C@]12C=CCN3CC[C@]4(C(=C(C(=O)OC)C1)Nc1ccccc14)[C@@H]32` [tabersonine] as the compound, how does the pKd [1] read?
**A.** Its pKd is 4.16.

**Q.** What about the pKd [2] of the same compound?
**A.** Its pKd is 3.27.

**Q.** What does the source list for LL-37?
**A.** SPRi interaction signal ([3]; analyte flowed onto the SPRi chip for 10 minutes, all three Aβ forms): specific and reversible interactions; Aβ42 fibril formation (TEM) ([4]; 50 μM Aβ42 co-incubated with equimolar LL-37, t=0, 3 and 9 days): inhibits Aβ42 fibril formation; fibrils seen by TEM ([4]; 50 μM Aβ42 with equimolar LL-37, t=9 days): no visible fibrils present; Aβ42 secondary structure (CD) [5]: prevented, to a large degree, from forming typical β structure; IL-6 release [6]: induced release; TNFα release [6]: induced release; Rmax (maximal response) ([7]; LL-37 1-100 μM injected on immobilized Aβ40 (t=0 days), nonlinear fit of SPRi response at equilibrium): 0.59; KA ([7]; immobilized Aβ40 (t=0 days), equilibrium fit): 120000 M⁻¹; Rmax (maximal response) ([8]; LL-37 1-100 μM injected on immobilized Aβ42 (t=0 days)): 1.56; KA ([8]; immobilized Aβ42 (t=0 days)): 75100 M⁻¹; Rmax (maximal response) ([9]; LL-37 1-100 μM injected on immobilized Aβ42 (t=24 days)): 4.43; KA ([9]; immobilized Aβ42 (t=24 days)): 49200 M⁻¹

**Q.** With “same amino acid composition as natural LL-37, sequence GLKLRFEFSKIKGEFLKTPEVRFRDIKLKDNRISVQR; from AnaSpec [scrambled LL-37, reference compound]” as the compound, how does the binding affinities constants ([3]; same equilibrium analysis, control scrambled-sequence peptide) read?
**A.** Its binding affinities constants is “could not be calculated”.
